Data reported in patent publication US11845760B2, “PRMT5 inhibitors” (AMGEN INC., priority 2020, dated 2023).
Where two headings read alike, the source gives them in different places.

Key:
HCT116 WT cells = assay: HCT116 WT cell line proliferation (CellTiter-Glo cell viability, 6 days); assay type: cell-based; conditions: HCT116 WT (parent) cells, 6 days of treatment, CellTiter-Glo cell viability, read-out: HCT-116 WT IC50
Method in brief: (§1)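 Viability by CellTiter-Glo after 6 days' drug exposure in wild-type HCT116 and its MTAP-null knockout, with DMSO-only control. Dosing used either 1:3 steps (top 1 or 10 μM) or 22 points in 1:2 steps (top 10 or 50 μM). IC50 taken where the fitted curve crosses 50% of control.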

HCT116 MTAP null cells = assay: HCT116 MTAP null cell line proliferation (CellTiter-Glo cell viability, 6 days); assay type: cell-based; conditions: HCT116 MTAP null cells, 6 days of treatment, CellTiter-Glo cell viability, read-out: HCT-116 MTAP null IC50
Method in brief: as §1

| Structure (SMILES) | IC50 (HCT116 WT cells; Homo sapiens, HCT-116, 144 h) [nM] | IC50 (HCT116 MTAP null cells; HCT116-MTAP null, 144 h) [nM] | IC50 (HCT116 WT cells) [nM] | IC50 (HCT116 MTAP null cells) [nM] |
| --- | --- | --- | --- | --- |
| Cn1ncc2c(N)nc3cc(Cl)c(C(=O)N4CC(c5ccc(C(F)(F)F)cc5)C4)cc3c21 [Example 440, (4-amino-7-chloro-1-methyl-1H-pyrazolo[4,3-c]quinolin-8-yl)(3-(4-(trifluoromethyl)phenyl)-1-azetidinyl)methanone] | 602 | 14 |  |  |
| Nc1nc2cc(F)c(C(=O)N3CCOCC3c3ccc(C(F)(F)F)cn3)cc2c2c1COC2 (racemic) [Example 351, (4-amino-7-fluoro-1,3-dihydrofuro[3,4-c]quinolin-8-yl)((3R)-3-(5-(trifluoromethyl)-2-pyridinyl)-4-morpholinyl)methanone and (4-amino-7-fluoro-1,3-dihydrofuro[3,4-c]quinolin-8-yl)((3S)-3-(5-(trifluoromethyl)-2-pyridinyl)-4-morpholinyl)methanone] | 6000 | 129 |  |  |
| C[C@H]1COC[C@@H](c2ccc(C(F)(F)F)cn2)N1C(=O)c1cc2c3c(c(N)nc2cc1F)COC3 (mixture of isomers) [Example 304, (4-amino-7-fluoro-1,3-dihydrofuro[3,4-c]quinolin-8-yl)((3R,5S)-3-methyl-5-(5-(trifluoromethyl)-2-pyridinyl)-4-morpholinyl)methanone and (4-amino-7-fluoro-1,3-dihydrofuro[3,4-c]quinolin-8-yl)((3S,5R)-3-methyl-5-(5-(trifluoromethyl)-2-pyridinyl)-4-morpholinyl)methanone] | 572 | 710 |  |  |
| Cc1nc2nc(N)c3cnn(C)c3c2cc1C(=O)N1CCOC[C@@H]1c1ccc(C(F)(F)F)cc1 [Example 415, (4-amino-1,7-dimethyl-1H-pyrazolo[4,3-c][1,8]naphthyridin-8-yl)((3S)-3-(4-(trifluoromethyl)phenyl)-4-morpholinyl)methanone] | 3340 | 73 |  |  |
| CC1OCc2c1c(N)nc1cnc(C(=O)N3C(C)COCC3c3ccc(C(F)(F)F)cc3F)cc21 (mixture of isomers) [Example 332, ((3S)-4-amino-3-methyl-1,3-dihydrofuro[3,4-c][1,7]naphthyridin-8-yl)((3R,5S)-3-(2-fluoro-4-(trifluoromethyl)phenyl)-5-methyl-4-morpholinyl)methanone and ((3S)-4-amino-3-methyl-1,3-dihydrofuro[3,4-c][1,7]naphthyridin-8-yl)((3S,5R)-3-(2-fluoro-4-(trifluoromethyl)phenyl)-5-methyl-4-morpholinyl)methanone] |  |  | 23300 | 536 |
| C[C@H]1COC[C@@H](c2ccc(C(F)(F)F)nc2)N1C(=O)c1cc2c3c(c(N)nc2cn1)COC3 (racemic) [Example 340, (4-amino-1,3-dihydrofuro[3,4-c][1,7]naphthyridin-8-yl)((3R,5S)-3-methyl-5-(6-(trifluoromethyl)-3-pyridinyl)-4-morpholinyl)methanone and (4-amino-1,3-dihydrofuro[3,4-c][1,7]naphthyridin-8-yl)((3S,5R)-3-methyl-5-(6-(trifluoromethyl)-3-pyridinyl)-4-morpholinyl)methanone] | 6440 | 71 |  |  |
| CCOc1ccc(C2COCCN2C(=O)c2cc3c4c(c(N)nc3cc2Cl)COC4)nn1 (racemic) [Example 391, (4-amino-7-chloro-1,3-dihydrofuro[3,4-c]quinolin-8-yl)((3R)-3-(6-ethoxy-3-pyridazinyl)-4-morpholinyl)methanone and (4-amino-7-chloro-1,3-dihydrofuro[3,4-c]quinolin-8-yl)((3S)-3-(6-ethoxy-3-pyridazinyl)-4-morpholinyl)methanone] | 3390 | 73 |  |  |
| C[C@H]1OCc2c1c(N)nc1ccc(C(=O)N3C[C@@H](c4ccccc4)[C@H](c4ccccc4)C3)cc21 (racemic) [Example 431, ((3R)-4-amino-3-methyl-1,3-dihydrofuro[3,4-c]quinolin-8-yl)((3R,4R)-3,4-diphenyl-1-pyrrolidinyl)methanone and ((3R)-4-amino-3-methyl-1,3-dihydrofuro[3,4-c]quinolin-8-yl)((3S,4S)-3,4-diphenyl-1-pyrrolidinyl)methanone] | 11400 | 337 |  |  |
| Nc1nc2cc(F)c(C(=O)N3CCOCC3c3ccc(F)c(OC(F)(F)F)c3)cc2c2c1COC2 (racemic) [Example 347, (4-amino-7-fluoro-1,3-dihydrofuro[3,4-c]quinolin-8-yl)((3R)-3-(4-fluoro-3-(trifluoromethoxy)phenyl)-4-morpholinyl)methanone and (4-amino-7-fluoro-1,3-dihydrofuro[3,4-c]quinolin-8-yl)((3S)-3-(4-fluoro-3-(trifluoromethoxy)phenyl)-4-morpholinyl)methanone] | 4700 | 325 |  |  |
| C[C@H]1OCc2c1c(N)nc1ccc(C(=O)N3C[C@@H](c4ccccc4)[C@@H]4COCC[C@@H]43)cc21 [Example 399, ((3R)-4-amino-3-methyl-1,3-dihydrofuro[3,4-c]quinolin-8-yl)((3R,3aS,7aS)-3-phenylhexahydropyrano[4,3-b]pyrrol-1(4H)-yl)methanone] | 13000 | 197 |  |  |

The remaining lines, values ahead:

| IC50 (HCT116 WT cells; Homo sapiens, HCT-116, 144 h) [nM] | IC50 (HCT116 MTAP null cells; HCT116-MTAP null, 144 h) [nM] | IC50 (HCT116 WT cells) [nM] | IC50 (HCT116 MTAP null cells) [nM] | Structure (SMILES) |
| --- | --- | --- | --- | --- |
| 37400 | 417 |  |  | Nc1nc2cc(F)c(C(=O)N3CC[C@H](c4ccc(C(F)(F)F)cc4)C3)cc2c2c1COC2 (single isomer, unassigned) [Example 468] |
| > 10000 | > 1000 |  |  | C[C@H]1COC[C@@H](c2ccc(C(F)(F)F)cn2)N1C(=O)c1ccc2nc(N)c3c(c2c1)COC3 (single isomer, unassigned) [Example 582] |
| 19800 | 486 |  |  | Nc1nc2ccc(C(=O)N3CCOCC3c3ccc(OC(F)F)cc3)cc2c2c1COC2 (racemic) [Example 496, (4-amino-1,3-dihydrofuro[3,4-c]quinolin-8-yl)((3R)-3-(4-(difluoromethoxy)phenyl)-4-morpholinyl)methanone and (4-amino-1,3-dihydrofuro[3,4-c]quinolin-8-yl)((3S)-3-(4-(difluoromethoxy)phenyl)-4-morpholinyl)methanone] |
| 1580 | 43 |  |  | Nc1nc2ccc(C(=O)N3CCOC[C@@H]3c3ccc(C(F)(F)C(F)(F)F)cc3)cc2c2c1COC2 [Example 510, (4-amino-1,3-dihydrofuro[3,4-c]quinolin-8-yl)((3S)-3-(4-(pentafluoroethyl)phenyl)-4-morpholinyl)methanone] |
| > 10000 | 2140 |  |  | CC(C)C[C@H]1COC[C@@H](c2ccc(C(F)(F)F)cc2)N1C(=O)c1cc2c3c(c(N)nc2cn1)COC3 (single isomer, unassigned) [Example 567] |
|  |  | > 10000 | > 10000 | Nc1nc2cnc(C(=O)N3CCOC[C@H]3c3cnc(C(F)(F)F)cn3)cc2c2c1COC2 (single isomer, unassigned) [Example 614] |
| 10600 | 325 |  |  | Nc1nc2cnc(C(=O)N3CCOCC3c3ccc(CC(F)(F)F)cc3)cc2c2c1COC2 (racemic) [Example 509, (4-amino-1,3-dihydrofuro[3,4-c][1,7]naphthyridin-8-yl)((3R)-3-(4-(2,2,2-trifluoroethyl)phenyl)-4-morpholinyl)methanone and (4-amino-1,3-dihydrofuro[3,4-c][1,7]naphthyridin-8-yl)((3S)-3-(4-(2,2,2-trifluoroethyl)phenyl)-4-morpholinyl)methanone] |
| > 10000 | > 1000 |  |  | Nc1nc2cnc(C(=O)N3CCOC[C@H]3c3ccc(C(F)(F)F)cc3)cc2c2c1COC2 (single isomer, unassigned) [Example 482] |
| 630 | 17 |  |  | Cn1ncc2c(N)nc3cc(F)c(C(=O)N4CCOC[C@@H]4c4ccc(C(F)(F)F)cn4)cc3c21 [Example 558, (4-amino-7-fluoro-1-methyl-1H-pyrazolo[4,3-c]quinolin-8-yl)((3S)-3-(5-(trifluoromethyl)-2-pyridinyl)-4-morpholinyl)methanone] |
| 8480 | 357 |  |  | C[C@H]1CN(C(=O)c2ccc3nc(N)c4c(c3c2)COC4)[C@@H](c2ccc(C(F)(F)F)cn2)CO1 (single isomer, unassigned) [Example 575] |
| > 10000 | 921 |  |  | Nc1nc2cnc(C(=O)N3CCC(F)(F)C[C@@H]3c3ccc(OC(F)(F)F)cc3)cc2c2c1COC2 (single isomer, unassigned) [Example 600] |
| 8760 | 221 |  |  | Nc1nc2ccc(C(=O)N3CCOC[C@@H]3c3ccc(C(F)(F)F)cn3)cc2c2c1COC2 (single isomer, unassigned) [Example 570] |
| 4950 | 243 |  |  | Cn1ncc2c(N)nc3cc(F)c(C(=O)N4CC[C@@H](Cc5ccc(C(F)(F)F)cc5)C4)cc3c21 (single isomer, unassigned) [Example 469] |
| 2590 | 210 |  |  | Nc1nc2cnc(C(=O)N3CCOC[C@@H]3c3ccc(OC(F)(F)F)cc3)cc2c2c1CCC2 [Example 514, (6-amino-8,9-dihydro-7H-cyclopenta[c][1,7]naphthyridin-2-yl)((3S)-3-(4-(trifluoromethoxy)phenyl)-4-morpholinyl)methanone] |
| 12900 | 394 |  |  | Nc1nc2cnc(C(=S)N3CCOC[C@@H]3c3ccc(C(F)(F)F)cc3)cc2c2c1COC2 [Example 626, (4-amino-1,3-dihydrofuro[3,4-c][1,7]naphthyridin-8-yl)((3S)-3-(4-(trifluoromethyl)phenyl)-4-morpholinyl)methanethione] |
